# Test results from US20180280480A1, “COMPOSITIONS AND PEPTIDES HAVING DUAL GLP-1R AND GLP-2R AGONIST ACTIVITY” (priority 2014, published 2018).
# Tests used:
# C57BL/6J mice [1] = assay: Acute food intake in C57BL/6J mice; format: in vivo; details: for Total food intake (g/animal): Day 0: 0-[…] (lights off), mean ± SEM
# Experimental: The C57BL/6J mice arrived 7 days prior to the initiation of the study. During these days, animals were handled daily to accustom them to the experimental paradigm. At Day −1, the mice were randomised according to body weight to participate in one of following drug treatment groups (n=6-8 in each group): Group 1: vehicle. […] Group 3-5: SEQ ID NO 3; 3.0; 1.0; 0.3 mg/kg. Group 6-8: SEQ ID NO 4; 3.0; 1.0; 0.3 mg/kg. Group 9-11: SEQ ID NO 5; 3.0; 1.0; 0.3 mg/kg. Group 12-14: SEQ ID NO 6; 3.0; 1.0; 0.3 mg/kg. Group 15-17: SEQ ID NO 7; 3.0; 1.0; 0.3 mg/kg. Three days prior to initiation of dosing, all animals were handled daily and accustomed to the experimental conditions by subcutaneous mock injections (i.e. nipping the skin of the back). Baseline food intake was monitored four days prior to the study. Mice were randomized according to body weight on Day −1. Animals were subjected to two separate injections. First acute dose was administered prior to lights out at Day 0 and food intake was monitored 24 hours post dosing. On Day 3, mice were re-randomised into new treatment groups and dosed prior to lights out. Food intake was monitored 24 hours post dosing. Body weight was measured daily from Day −5 and throughout the study. The study was terminated on Day 5. […] Dosing took place prior to lights out in the afternoon (between 13.30 and 14.00). Doses were administered subcutaneously (dose volume 5 ml/kg). Food intake data was collected using the HM-2 system, an online computerized feeding system using digital weighing cells. Food intake and body weight were measured from Day −7 and throughout the study. […]
# GLP-2R = biological target: T1, GLP-2R (Homo sapiens, UniProt O95838); assay: GLP2 receptor efficacy assay (in vitro functional screen, Euroscreen or DiscoveRx); details: Table 1
# T1 sequence (O95838 1-553): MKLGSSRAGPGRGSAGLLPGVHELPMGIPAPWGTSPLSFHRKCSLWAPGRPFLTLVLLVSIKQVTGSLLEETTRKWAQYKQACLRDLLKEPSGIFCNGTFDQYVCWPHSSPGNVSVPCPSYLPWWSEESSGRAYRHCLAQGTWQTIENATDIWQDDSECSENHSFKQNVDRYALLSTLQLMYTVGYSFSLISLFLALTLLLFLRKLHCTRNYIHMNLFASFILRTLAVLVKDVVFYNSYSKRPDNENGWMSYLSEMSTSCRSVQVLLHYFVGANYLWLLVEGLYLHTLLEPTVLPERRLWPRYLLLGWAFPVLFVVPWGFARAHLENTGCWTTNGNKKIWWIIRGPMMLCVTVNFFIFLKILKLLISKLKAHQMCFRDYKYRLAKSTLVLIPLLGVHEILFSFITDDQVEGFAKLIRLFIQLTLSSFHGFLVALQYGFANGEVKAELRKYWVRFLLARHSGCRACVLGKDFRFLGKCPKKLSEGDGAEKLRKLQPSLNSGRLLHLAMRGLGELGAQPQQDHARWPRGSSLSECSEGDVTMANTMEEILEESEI
# C57BL/6J mice [2] = assay: GLP1R-GLP2R dual agonist compound study: oral glucose tolerance test; format: in vivo
# Experimental: On day 7, an oral glucose tolerance test (OGTT) was performed. Animals were mildly fasted as all food was removed 4 hours prior to the oral glucose load. Vehicle (SC) and compounds were administered subcutaneously (SC) 2 hours prior to the OGTT. At t=0 mice received an oral glucose load (2 g/kg; 4 ml/kg; 500 mg/ml, Fresenius Kabi, Sweden). Glucose was given as gavage via a gastrically-placed tube connected to a syringe ensuring accurate dosing. Blood glucose was measured from tail vein blood before glucose (at t=−120 and 0 min, baseline) and after glucose administration at t=15, 30, 60 and 120 min. Blood samples (tail vein) was collected into 10 μl heparinized glass capillary tubes and immediately suspended in buffer (0.5 ml of glucose/lactate system solution (EKF-diagnostics, Germany) and analyzed for glucose on the test day using a BIOSEN c-Line glucose meter (EKF-diagnostics, Germany) according to manufacturer's instructions. Results from the OGTT are listed below in Table 11.
# [3] = test system: diabetic db/db (BKS.Cg-m+/+Leprdb/J) male mice; assay: Fed blood glucose and HbA1c in diabetic db/db mice; format: in vivo; details: for Blood glucose, fed state / HbA1c: Day 56, mean ± S.E.M.
# Experimental: A total of forty-six (46) diabetic db/db (BKS.Cg-m+/+Leprdb/J) male mice, 5 weeks old at arrival, was obtained from Janvier (France). The mice were acclimatized for two weeks in their new environment with free access to normal chow (Altromin 1324, Brogaarden A/S, Gentofte, Denmark) and domestic quality tap water. They were housed in groups of n=2 in a light-, temperature-, and humidity-controlled room (12-hour light: 12-hour dark cycle, lights On/Off at 04.00/16.00 h; 22±1° C.; 50±10% relative humidity). During the habituation period animals was accustomed to the experimental paradigm.
# Baseline, free fed blood glucose samples were obtained bi-weekly prior to study start (blood was collected from the tail vein) in order to screen for the diabetic state. The 40 animals closest to the mean BG/BW value at day −3 were randomized into 4 groups (n=10/group; the remaining 6 animals was be discarded from the main study): Group 1: Vehicle, BID, SC. Group 2: SEQ ID NO 6, 50 nmol/kg, BID, SC. Group 3: SEQ ID NO 6, 250 nmol/kg, BID, SC. […] During day 0-58 of the experiment, animals received a subcutaneous dosing twice daily at 06.00-08.00 hours and again between 02.00-04.00 hours. Dose volume was 5 ml/kg.
# On experimental day 56 an oral glucose tolerance test was performed. Animals were mildly fasted as food was removed 4 hours prior to administration of the glucose bolus. Compounds were administered 45 minutes prior to the OGTT. At t=0, mice received an oral glucose load of 2 g/kg glucose (Glucose 200 mg/ml, Fresenius Kabi, Sweden). Glucose was given as gavage via a gastrically placed tube connected to a syringe ensuring accurate dosing. Blood samples were collected from the tail vein and blood-glucose was measured at time points −60, 0, 15, 30, 60, 120 and 240 minutes after the glucose administration. Samples for measuring HbA1c was taken in parallel with blood glucose at t=−60 minutes. Mice were re-fed after the last blood sampling.
substance,measurement,setting,value
R^1-HGDGSFTSELSTYLDALAARDFIAWLIQTKITDR^2 [SEQ ID NO 6],Total food intake (g/animal),C57BL/6J mice [1]; single SC dose 0.3 mg/kg,0.33 ± 0.17 g/animal
same,Total food intake (g/animal),C57BL/6J mice [1]; single SC dose 1 mg/kg,0.13 ± 0.08 g/animal
same,Total food intake (g/animal),C57BL/6J mice [1]; single SC dose 3 mg/kg,0.06 ± 0.03 g/animal
same,ranking as inhibitor of food intake after […],"C57BL/6J mice [1]; among SEQ ID NO 3-7, Table 4",most effective inhibitor of food intake
same,food intake after […] compared to vehicle,C57BL/6J mice [1]; single dose 0.3-3 mg/kg,significantly reduced food intake
same,ranking of GLP-2 receptor potency,GLP-2R,most potent GLP-2 receptor agonist
same,"Oral glucose tolerance test AUC, 0-120 min","C57BL/6J mice [2]; Day 7, 3.0 mg/kg BID SC, glucose 2 g/kg oral, mean ± S.E.M.",523 ± 112 mmol·min/L
same,blood glucose compared to vehicle and teduglutide,C57BL/6J mice [2]; dosed twice daily for 7 days,significantly reduced fasting blood glucose
same,"effect on fed-state blood glucose, HbA1c and glucose tolerance","[3]; 8 weeks of treatment, db/db mice","reduction in fed-state blood glucose, HbA1c levels as well as an improving of glucose tolerance in a dose dependent manner"
same,"Blood glucose, fed state",[3]; 50 nmol/kg BID SC,7.2 ± 1.0 mmol/L
same,HbA1c,[3]; 50 nmol/kg BID SC,5.0 ± 0.2 %
same,"Blood glucose, fed state",[3]; 250 nmol/kg BID SC,5.9 ± 0.4 mmol/L
same,HbA1c,[3]; 250 nmol/kg BID SC,4.4 ± 0.1 %
